Assay results from patent US20230399319A1, “Acylsulfamide Compound and Pharmaceutical Use Therefor” (Japan Tobacco Inc., priority 2019, published 2023).

Target: NLRP3 inflammasome (Homo sapiens (Human), UniProt Q96P20)
Assay: Evaluation of NLRP3 inflammasome inhibitory activity (inhibition of IL-1β production in THP1-Null cells, LPS/Nigericin)
Conditions: for IC50: inhibition of IL-1β production in THP1-Null cells; for inhibition at 3 µM: read-out: % inhibition at 3 μM

NLRP3 inflammasome, sequence (Q96P20 whole entry): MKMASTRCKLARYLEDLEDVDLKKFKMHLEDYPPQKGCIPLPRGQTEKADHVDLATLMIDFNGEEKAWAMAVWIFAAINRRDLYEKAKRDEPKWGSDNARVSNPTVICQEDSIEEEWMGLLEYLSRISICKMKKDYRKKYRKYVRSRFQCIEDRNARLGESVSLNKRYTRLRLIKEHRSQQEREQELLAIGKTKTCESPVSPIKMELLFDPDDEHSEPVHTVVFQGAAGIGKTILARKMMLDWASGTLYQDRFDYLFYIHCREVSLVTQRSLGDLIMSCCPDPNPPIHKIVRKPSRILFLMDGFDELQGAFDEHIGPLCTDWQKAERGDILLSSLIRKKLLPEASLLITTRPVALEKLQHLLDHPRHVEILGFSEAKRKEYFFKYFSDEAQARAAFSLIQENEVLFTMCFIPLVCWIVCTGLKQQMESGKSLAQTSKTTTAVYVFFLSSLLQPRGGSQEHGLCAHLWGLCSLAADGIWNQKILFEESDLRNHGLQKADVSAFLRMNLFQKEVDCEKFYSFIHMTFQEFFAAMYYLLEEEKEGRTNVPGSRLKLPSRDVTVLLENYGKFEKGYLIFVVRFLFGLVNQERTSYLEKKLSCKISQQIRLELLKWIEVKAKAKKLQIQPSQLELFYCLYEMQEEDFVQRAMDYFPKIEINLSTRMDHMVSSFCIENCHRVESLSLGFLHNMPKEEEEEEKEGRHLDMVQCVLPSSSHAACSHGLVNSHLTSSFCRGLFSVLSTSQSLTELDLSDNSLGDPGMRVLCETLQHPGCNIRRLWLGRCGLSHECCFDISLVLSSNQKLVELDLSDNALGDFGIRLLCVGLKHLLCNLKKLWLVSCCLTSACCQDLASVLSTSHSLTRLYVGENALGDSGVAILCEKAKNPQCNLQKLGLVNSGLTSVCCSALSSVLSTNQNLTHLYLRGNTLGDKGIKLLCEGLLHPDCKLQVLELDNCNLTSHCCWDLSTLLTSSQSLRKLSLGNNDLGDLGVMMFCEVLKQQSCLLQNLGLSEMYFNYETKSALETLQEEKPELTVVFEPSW

CCS(=O)(=O)N1CCCN(S(=O)(=O)NC(=O)c2coc(Nc3cc(C(F)(F)F)ccc3C)n2)CC1 [Example 2-064]
IC50: 26 nM

Cc1ccc(C(F)(F)F)cc1Nc1nc(C(=O)NS(=O)(=O)N2CCOCC2)cs1 [Example 2-065]
IC50: 32 nM

Cc1ccc(C(F)(F)F)cc1Nc1nc(C(=O)NS(=O)(=O)N2CCCOCC2)cs1 [Example 2-066]
IC50: < 30 nM

Cc1ccc(C(C)(C)C)cc1Nc1nc(C(=O)NS(=O)(=O)N(C)C)co1 [Example 2-069]
IC50: 66 nM

CC(C)c1ccc(C(C)C)c(Nc2nc(C(=O)NS(=O)(=O)N(C)C)co2)c1 [Example 2-070]
IC50: 120 nM

Cc1ccc(C)c(Nc2nc(C(=O)NS(=O)(=O)N3CCCOCC3)co2)c1 [Example 2-073]
IC50: 280 nM

Cc1cnc(C(F)(F)F)cc1Nc1nc(C(=O)NS(=O)(=O)N(C)C)co1 [Example 2-074]
IC50: 11000 nM

Cc1cnc(C(F)(F)F)cc1Nc1nc(C(=O)NS(=O)(=O)N2CCCOCC2)co1 [Example 2-075]
IC50: 4500 nM

Cc1ccc2c(c1Nc1nc(C(=O)NS(=O)(=O)N(C)C)cs1)CCC2 [Example 2-083]
IC50: 490 nM

Cc1ccc2c(c1Nc1nc(C(=O)NS(=O)(=O)N3CCOCC3)cs1)CCC2 [Example 2-084]
IC50: 140 nM

Cc1ccc2c(c1Nc1nc(C(=O)NS(=O)(=O)N3CCCOCC3)cs1)CCC2 [Example 2-085]
IC50: 120 nM

Cc1cnc(C)c(Nc2nc(C(=O)NS(=O)(=O)N(C)C)co2)n1 [Example 2-086]
inhibition at 3 µM: 17%

Cc1ccc(C(F)(F)F)nc1Nc1nc(C(=O)NS(=O)(=O)N(C)C)co1 [Example 2-087]
IC50: 550 nM

Cc1ccc(C(F)(F)F)nc1Nc1nc(C(=O)NS(=O)(=O)N2CCCOCC2)co1 [Example 2-088]
IC50: 120 nM

CC(C)c1nn(C(C)C)cc1Nc1nc(C(=O)NS(=O)(=O)N(C)C)co1 [Example 2-089]
IC50: 1200 nM

CC(C)c1nn(C(C)C)cc1Nc1nc(C(=O)NS(=O)(=O)N2CCCOCC2)co1 [Example 2-090]
IC50: 570 nM

Cc1ccc(C(F)(F)F)cc1Nc1nc(C(=O)NS(=O)(=O)N2CCC(=O)N(C)CC2)co1 [Example 2-093]
IC50: 59 nM

Cc1ccc(C2(C#N)CC2)cc1Nc1nc(C(=O)NS(=O)(=O)N(C)C)co1 [Example 2-094]
IC50: 270 nM

Cc1ccc2c(c1Nc1nc(C(=O)NS(=O)(=O)N3CCCOCC3)co1)CCC2 [Example 2-097]
IC50: 150 nM

Cc1ccc(C(C)C)cc1Nc1nc(C(=O)NS(=O)(=O)N2CCOCC2(C)C)co1 [Example 2-098]
IC50: 250 nM

Cc1ccc(C(F)(F)F)cc1Nc1nc(C(=O)NS(=O)(=O)N2CCCN(S(=O)(=O)N(C)C)CC2)co1 [Example 2-099]
IC50: 21 nM

CCCS(=O)(=O)N1CCCN(S(=O)(=O)NC(=O)c2coc(Nc3cc(C(F)(F)F)ccc3C)n2)CC1 [Example 2-100]
IC50: 10 nM

COC(=O)N1CCCN(S(=O)(=O)NC(=O)c2coc(Nc3cc(C(F)(F)F)ccc3C)n2)CC1 [Example 2-101]
IC50: 39 nM

CCC(=O)N1CCCN(S(=O)(=O)NC(=O)c2coc(Nc3cc(C(F)(F)F)ccc3C)n2)CC1 [Example 2-102]
IC50: 50 nM

Cc1ccc(C(F)(F)F)cc1Nc1nc(C(=O)NS(=O)(=O)N2CCCN(S(=O)(=O)C3CC3)CC2)co1 [Example 2-103]
IC50: 20 nM

Cc1ncc(C(F)(F)F)cc1Nc1nc(C(=O)NS(=O)(=O)N2CCCOCC2)co1 [Example 2-104]
IC50: 1800 nM

CC(C)c1ccc(C(F)F)cc1Nc1nc(C(=O)NS(=O)(=O)N(C)C)co1 [Example 2-105]
IC50: 86 nM

CC(C)c1ccc(C(F)F)cc1Nc1nc(C(=O)NS(=O)(=O)N2CCCOCC2)co1 [Example 2-106]
IC50: 44 nM

Cc1ccc(C2(C#N)CC2)cc1Nc1nc(C(=O)NS(=O)(=O)N2CCCOCC2)co1 [Example 2-107]
IC50: 150 nM

CC(C)c1cn(C(C)C)nc1Nc1nc(C(=O)NS(=O)(=O)N2CCCOCC2)co1 [Example 2-116]
IC50: 85 nM

CC(C)c1cn(C(C)C)nc1Nc1nc(C(=O)NS(=O)(=O)N(C)C)co1 [Example 2-117]
IC50: 110 nM

CC(C)c1ccc2c(c1Nc1nc(C(=O)NS(=O)(=O)N(C)C)co1)CCC2 [Example 2-118]
IC50: 260 nM

CC(C)c1ccc2c(c1Nc1nc(C(=O)NS(=O)(=O)N3CCCOCC3)co1)CCC2 [Example 2-119]
IC50: 96 nM

CC(C)c1ccc(C(F)(F)F)nc1Nc1nc(C(=O)NS(=O)(=O)N2CCCOCC2)co1 [Example 2-125]
IC50: 250 nM

CCCCS(=O)(=O)N1CCCN(S(=O)(=O)NC(=O)c2coc(Nc3cc(C(F)(F)F)ccc3C)n2)CC1 [Example 2-126]
IC50: 10 nM

Cc1ccc(C(F)(F)F)cc1Nc1nc(C(=O)NS(=O)(=O)N2CCCN(S(=O)(=O)CC(C)C)CC2)co1 [Example 2-128]
IC50: 20 nM

CCN(C)S(=O)(=O)N1CCCN(S(=O)(=O)NC(=O)c2coc(Nc3cc(C(F)(F)F)ccc3C)n2)CC1 [Example 2-129]
IC50: 20 nM

Cc1ccc(C(F)(F)F)cc1Nc1nc(C(=O)NS(=O)(=O)N2CCCN(S(=O)(=O)CCC(F)(F)F)CC2)co1 [Example 2-130]
IC50: 20 nM

O=C(NS(=O)(=O)N1CCCOCC1)c1coc(Nc2cc(C(F)(F)F)ccc2Cl)n1 [Example 2-136]
inhibition at 3 µM: -1.6%

COc1ccc(C(F)(F)F)cc1Nc1nc(C(=O)NS(=O)(=O)N2CCCOCC2)co1 [Example 2-137]
IC50: 130 nM

CC(C)c1cn(C(C)C)nc1Nc1nc(C(=O)NS(=O)(=O)N(C)C(C)C)co1 [Example 2-138]
IC50: 92 nM

CC(C)c1cn(C(C)C)nc1Nc1nc(C(=O)NS(=O)(=O)N2CCCC2)co1 [Example 2-139]
IC50: 270 nM

Cc1ccc(Br)cc1Nc1nc(C(=O)NS(=O)(=O)N2CCCOCC2)co1 [Example 2-140]
IC50: 74 nM

Cc1cc(C#N)c(C(F)(F)F)cc1Nc1nc(C(=O)NS(=O)(=O)N2CCCOCC2)co1 [Example 2-142]
IC50: 6300 nM

CC(C)c1cnc(C(F)(F)F)nc1Nc1nc(C(=O)NS(=O)(=O)N2CCCOCC2)co1 [Example 2-144]
inhibition at 3 µM: 23%

Cc1cn(C(C)C)nc1Nc1nc(C(=O)NS(=O)(=O)N2CCCOCC2)co1 [Example 2-147]
IC50: 420 nM

CCCN1CCCN(S(=O)(=O)NC(=O)c2coc(Nc3cc(C(F)(F)F)ccc3C)n2)CC1 [Example 2-154]
IC50: 230 nM

COC1CCN(S(=O)(=O)NC(=O)c2coc(Nc3cc(C(F)(F)F)ccc3C)n2)CC1 [Example 2-158]
IC50: 100 nM

CCCS(=O)(=O)N1CCCN(S(=O)(=O)NC(=O)c2coc(Nc3cn(C(C)C)nc3C(C)C)n2)CC1 [Example 2-160]
IC50: 170 nM

CC(C)n1cc(Nc2nc(C(=O)NS(=O)(=O)N3CCCOCC3)co2)c(C(F)(F)F)n1 [Example 2-169]
IC50: 1700 nM

CC(C)c1nn(C(C)C)cc1Nc1nc(C(=O)NS(=O)(=O)N2CCCN(S(=O)(=O)CC(C)(C)C)CC2)co1 [Example 2-170]
IC50: 600 nM

CC(C)c1ccc(OC(F)(F)F)c(Nc2nc(C(=O)NS(=O)(=O)N3CCCOCC3)co2)c1 [Example 2-175]
IC50: 400 nM

CC(C)c1ccc(C(F)(F)F)c(Nc2nc(C(=O)NS(=O)(=O)N3CCCOCC3)co2)c1 [Example 2-176]
IC50: 18000 nM

CCCCS(=O)(=O)N1CCCN(S(=O)(=O)NC(=O)c2coc(Nc3nn(C(C)C)cc3C(C)C)n2)CC1 [Example 2-177]
IC50: 47 nM

CC(C)Cc1nn(C(C)C)cc1Nc1nc(C(=O)NS(=O)(=O)N2CCCOCC2)co1 [Example 2-180]
inhibition at 3 µM: -3%

CCCCS(=O)(=O)N1CCCN(S(=O)(=O)NC(=O)c2coc(Nc3nn(C(C)C)cc3C)n2)CC1 [Example 2-181]
IC50: 31 nM

CCCCC(=O)N1CCCN(S(=O)(=O)NC(=O)c2coc(Nc3cc(C(F)(F)F)ccc3C)n2)CC1 [Example 2-182]
IC50: 10 nM

Cc1ccc(C(F)(F)F)cc1Nc1nc(C(=O)NS(=O)(=O)N2CCCN(c3ncccn3)CC2)co1 [Example 2-183]
IC50: 15 nM

Cc1ccc(C(F)(F)F)cc1Nc1nc(C(=O)NS(=O)(=O)N2CCCN(c3nccc(C(C)C)n3)CC2)co1 [Example 2-186]
IC50: 41 nM

Cc1cn(CC(C)C)nc1Nc1nc(C(=O)NS(=O)(=O)N2CCCOCC2)co1 [Example 2-189]
inhibition at 3 µM: 16%

CCc1nn(C(C)C)cc1Nc1nc(C(=O)NS(=O)(=O)N2CCCOCC2)co1 [Example 2-193]
inhibition at 3 µM: 46%

CC(C)n1cc(Nc2nc(C(=O)NS(=O)(=O)N3CCCOCC3)co2)c(C(C)(C)C)n1 [Example 2-194]
IC50: 1500 nM

CC(C)n1cc(Nc2nc(C(=O)NS(=O)(=O)N3CCCOCC3)co2)c(C2CC2)n1 [Example 2-195]
IC50: 1400 nM

CC(C)n1cc(Nc2nc(C(=O)NS(=O)(=O)N3CCCOCC3)co2)c(C2CCC2)n1 [Example 2-196]
IC50: 2700 nM

CCCCS(=O)(=O)N1CCCN(S(=O)(=O)NC(=O)c2coc(Nc3cc(C)ccc3C)n2)CC1 [Example 2-203]
IC50: 18 nM

Cc1cn(C(F)F)nc1Nc1nc(C(=O)NS(=O)(=O)N2CCCOCC2)co1 [Example 2-209]
inhibition at 3 µM: 33%

Cc1ccnc(N2CCCN(S(=O)(=O)NC(=O)c3coc(Nc4cc(C(F)(F)F)ccc4C)n3)CC2)n1 [Example 2-211]
IC50: 16 nM

Cc1cc(F)c(C(F)(F)F)cc1Nc1nc(C(=O)NS(=O)(=O)N2CCCOCC2)co1 [Example 2-213]
IC50: 39 nM

Cc1ccc(C(F)(F)F)cc1Nc1nc(C(=O)NS(=O)(=O)N2CCCN(c3ccncn3)CC2)co1 [Example 2-214]
IC50: 89 nM

CCCC(=O)N1CCCN(S(=O)(=O)NC(=O)c2coc(Nc3cc(C(F)(F)F)ccc3C)n2)CC1 [Example 2-215]
IC50: 61 nM

Cc1ccc(C(F)(F)F)cc1Nc1nc(C(=O)NS(=O)(=O)N2CCc3nncn3CC2)co1 [Example 2-217]
IC50: < 3000 nM

CCCC(=O)N1CCCN(S(=O)(=O)NC(=O)c2coc(Nc3cc(C(F)F)ccc3C(C)C)n2)CC1 [Example 2-223]
IC50: 71 nM

CCCS(=O)(=O)N1CCCN(S(=O)(=O)NC(=O)c2coc(Nc3cc(C(F)F)ccc3C(C)C)n2)CC1 [Example 2-224]
IC50: 27 nM

CCCCS(=O)(=O)N1CCCN(S(=O)(=O)NC(=O)c2coc(Nc3cc(C(F)F)ccc3C(C)C)n2)CC1 [Example 2-225]
IC50: 36 nM

Cc1c(Nc2nc(C(=O)NS(=O)(=O)N3CCCOCC3)co2)c(C(C)C)nn1C(C)C [Example 2-227]
IC50: 1500 nM
